Experimental data from ChEMBL document CHEMBL4052632 (Eur J Med Chem, 2017).
The source made the active and inactive calls. No cut-off for these calls is given here.

Tests used:
A2780 = experiment: Antiproliferative activity against human A2780 cells measured after 48 hrs by MTT assay; type: functional, cell-based; settings: A2780, 48 h
cells = settings: Homo sapiens, OVCA433, 48 h
Description: Antiproliferative activity against human OVCA433 cells measured after 48 hrs by MTT assay

[1] = molecular target: T1, Glycogen synthase kinase-3 beta (Homo sapiens, UniProt P49841); experiment: biochemical
Description: Inhibition of recombinant N-terminal His6-tagged human GSK3beta H350L mutant expressed in baculovirus infected Sf21 insect cells using polypeptide GS-2 as substrate after 30 mins in presence of ATP by kinase-glo luminescence assay

[2] = system: Glycogen synthase kinase-3 beta (Homo sapiens), P49841 [UNDEFINED MUTATION]; experiment: Non-competitive inhibition of recombinant N-terminal His6-tagged human GSK3beta H350L mutant expressed in baculovirus infected Sf21 insect cells at 20 to 50 uM in presence of varying levels of ATP and constant GS-2 substrate concentration after 30 mins by double reciprocal plot analysis
[3] = system: Glycogen synthase kinase-3 beta (Homo sapiens), P49841 [UNDEFINED MUTATION]; experiment: Non-competitive inhibition of recombinant N-terminal His6-tagged human GSK3beta H350L mutant expressed in baculovirus infected Sf21 insect cells at 20 to 50 uM in presence of constant levels of ATP and varying GS-2 substrate concentration after 30 mins by double reciprocal plot analysis
[4] = molecular target: T1, Glycogen synthase kinase-3 beta
Description: Inhibition of GSK3beta (unknown origin)

[5] = molecular target: Receptor tyrosine-protein kinase erbB-4 (Homo sapiens) (UniProt Q15303); experiment: Inhibition of ErbB4 (unknown origin) using poly (Glu, Tyr) 4:1 as substrate after 1 hr by ELISA relative to control; settings: concentration not given here
[6] = system: Glycogen synthase kinase-3 beta (Homo sapiens), P49841 [UNDEFINED MUTATION]; experiment: Non-competitive inhibition of recombinant N-terminal His6-tagged human GSK3beta H350L mutant expressed in baculovirus infected Sf21 insect cells at 6.25 to 12.5 uM in presence of varying levels of ATP and constant GS-2 substrate concentration after 30 mins by double reciprocal plot analysis
[7] = system: Glycogen synthase kinase-3 beta (Homo sapiens), P49841 [UNDEFINED MUTATION]; experiment: Non-competitive inhibition of recombinant N-terminal His6-tagged human GSK3beta H350L mutant expressed in baculovirus infected Sf21 insect cells at 6.25 to 12.5 uM in presence of constant levels of ATP and varying GS-2 substrate concentration after 30 mins by double reciprocal plot analysis

Sequence of Glycogen synthase kinase-3 beta (Homo sapiens), P49841 [UNDEFINED MUTATION] (P49841 whole entry, looked up, stated change not applied): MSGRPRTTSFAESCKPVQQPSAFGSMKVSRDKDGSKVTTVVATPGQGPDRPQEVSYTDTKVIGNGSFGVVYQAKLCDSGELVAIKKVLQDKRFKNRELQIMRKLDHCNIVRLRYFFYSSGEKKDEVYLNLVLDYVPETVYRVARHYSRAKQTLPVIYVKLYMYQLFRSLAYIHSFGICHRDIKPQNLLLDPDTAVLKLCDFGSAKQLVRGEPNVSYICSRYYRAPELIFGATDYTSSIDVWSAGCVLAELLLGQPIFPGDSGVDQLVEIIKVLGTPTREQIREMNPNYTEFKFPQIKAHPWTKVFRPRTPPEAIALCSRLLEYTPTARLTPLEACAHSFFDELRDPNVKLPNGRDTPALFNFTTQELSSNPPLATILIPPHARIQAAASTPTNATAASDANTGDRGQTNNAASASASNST
T1 sequence (P49841 whole entry): as the sequence (P49841 whole entry, looked up, stated change not applied) above
Sequence of Receptor tyrosine-protein kinase erbB-4 (Homo sapiens) (Q15303 whole entry): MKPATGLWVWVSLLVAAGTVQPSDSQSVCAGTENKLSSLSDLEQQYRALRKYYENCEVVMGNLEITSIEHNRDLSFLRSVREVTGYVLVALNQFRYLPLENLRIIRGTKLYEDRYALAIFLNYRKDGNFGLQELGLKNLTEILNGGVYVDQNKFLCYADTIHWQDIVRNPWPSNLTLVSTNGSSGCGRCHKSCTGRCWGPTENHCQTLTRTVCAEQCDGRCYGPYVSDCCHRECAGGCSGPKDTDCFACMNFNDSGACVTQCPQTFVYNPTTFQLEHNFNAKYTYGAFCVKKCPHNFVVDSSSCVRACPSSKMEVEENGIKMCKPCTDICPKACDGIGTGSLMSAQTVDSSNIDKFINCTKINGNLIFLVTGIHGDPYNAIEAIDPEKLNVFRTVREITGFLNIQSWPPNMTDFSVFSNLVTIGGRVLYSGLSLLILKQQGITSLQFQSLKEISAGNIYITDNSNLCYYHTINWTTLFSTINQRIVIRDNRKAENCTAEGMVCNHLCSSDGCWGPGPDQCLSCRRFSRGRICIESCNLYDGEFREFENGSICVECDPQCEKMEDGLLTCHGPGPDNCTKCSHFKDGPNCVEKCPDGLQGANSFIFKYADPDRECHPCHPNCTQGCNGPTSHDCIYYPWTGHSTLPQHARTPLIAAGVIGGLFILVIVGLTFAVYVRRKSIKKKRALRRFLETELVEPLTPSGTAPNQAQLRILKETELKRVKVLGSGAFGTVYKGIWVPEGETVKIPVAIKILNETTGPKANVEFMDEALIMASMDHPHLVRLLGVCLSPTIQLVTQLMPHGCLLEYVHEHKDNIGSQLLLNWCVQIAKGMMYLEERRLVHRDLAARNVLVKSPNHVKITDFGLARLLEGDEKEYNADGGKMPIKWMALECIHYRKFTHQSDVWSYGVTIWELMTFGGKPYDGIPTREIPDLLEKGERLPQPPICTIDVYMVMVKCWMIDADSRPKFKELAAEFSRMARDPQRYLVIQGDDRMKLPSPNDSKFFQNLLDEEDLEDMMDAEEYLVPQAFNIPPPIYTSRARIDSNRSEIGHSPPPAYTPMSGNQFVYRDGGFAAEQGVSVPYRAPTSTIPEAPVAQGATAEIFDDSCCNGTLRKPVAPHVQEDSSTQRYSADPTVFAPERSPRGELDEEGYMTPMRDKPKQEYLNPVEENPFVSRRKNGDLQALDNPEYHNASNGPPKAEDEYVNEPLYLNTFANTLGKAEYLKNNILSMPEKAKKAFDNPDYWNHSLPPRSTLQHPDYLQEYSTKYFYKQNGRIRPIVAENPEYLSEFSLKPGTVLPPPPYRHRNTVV

**Q.** With `CCCCCCCCCCC(=O)N1CCN(C(=O)C2Sc3ccccc3N(CC)C2=O)CC1` (configuration not stated) as the molecule, how does the IC50 (A2780) read?
**A.** 21.8 µM

**Q.** And the IC50 (cells)?
**A.** 22.9 µM

**Q.** What about the IC50 [1] of the same molecule?
**A.** 27.1 µM

**Q.** What does the source list for `CCCCCCCCCCCCCCCC(=O)NC1CCN(C(=O)C2Sc3ccccc3N(CC)C2=O)CC1` (configuration not stated)?
**A.** IC50 (A2780): 3.5 µM; inhibition [2]: Active; inhibition [3]: Active; IC50 (cells): 69.8 µM; IC50 [1]: 11.7 µM

**Q.** With `Cn1sc(=O)n(Cc2ccccc2)c1=O` as the molecule, how does the IC50 (A2780) read?
**A.** 20 µM

**Q.** What about the IC50 (cells) of the same molecule?
**A.** 15.3 µM

**Q.** With `CCCCCCCCCCCC(=O)NNC(=O)C1Sc2ccccc2N(CC)C1=O` (configuration not stated) as the molecule, how does the IC50 (A2780) read?
**A.** 40.7 µM

**Q.** And the IC50 (cells)?
**A.** > 100 µM

**Q.** What about the IC50 [1] of the same molecule?
**A.** 11.9 µM

**Q.** Which results are given for `CCCCCCCCCCCC(=O)N1CCC(NC(=O)C2Sc3ccccc3N(CC)C2=O)CC1` (configuration not stated)?
**A.** IC50 (A2780): 16.6 µM; IC50 (cells): 26.8 µM; IC50 [1]: 29.7 µM

**Q.** What does the source list for `CCCCCCCCCC(=O)N1CCN(C(=O)C2Sc3ccccc3N(CC)C2=O)CC1` (configuration not stated)?
**A.** IC50 (A2780): 36 µM; IC50 (cells): 89.5 µM; IC50 [1]: 51.7 µM

**Q.** Which IC50 [4] does the source give for `O=C1Cc2cc(Br)ccc2/C1=c1/[nH]c2ccccc2/c1=C\O` here?
**A.** 0.005 µM

**Q.** Which IC50 (A2780) does the source give for `CCCCCCCCCC(=O)N1CCC(NC(=O)C2Sc3ccccc3N(CC)C2=O)CC1` (configuration not stated) here?
**A.** 23.6 µM

**Q.** And the IC50 (cells)?
**A.** 47.7 µM

**Q.** What about the IC50 [1] of the same molecule?
**A.** 74.9 µM

**Q.** With `CN(C)C/C=C/C(=O)Nc1cc2c(Nc3ccc(F)c(Cl)c3)ncnc2cc1O[C@H]1CCOC1` as the molecule, how does the inhibition [5] read?
**A.** 98.2%

**Q.** Which IC50 (A2780) does the source give for `CCCCCCCCCCCCNC(=O)C1Sc2ccccc2N(CC)C1=O` (configuration not stated) here?
**A.** 15.5 µM

**Q.** And the IC50 (cells)?
**A.** > 100 µM

**Q.** And the IC50 [1]?
**A.** 22.9 µM

**Q.** For `CCCCCCCCCCC(=O)N1CCC(NC(=O)C2Sc3ccccc3N(CC)C2=O)CC1` (configuration not stated), which IC50 (A2780) is on record?
**A.** 16.6 µM

**Q.** And the IC50 (cells)?
**A.** 28.2 µM

**Q.** And the IC50 [1]?
**A.** 44.3 µM

**Q.** Which results are given for `CCCCCCCCCCCC(=O)NC1CCN(C(=O)C2Sc3ccccc3N(CC)C2=O)CC1` (configuration not stated)?
**A.** IC50 (A2780): 13 µM; IC50 (cells): 28.4 µM; IC50 [1]: 33.4 µM

**Q.** Which results are given for `CCCCCCCCCCCCCC(=O)N1CCN(C(=O)C2Sc3ccccc3N(CC)C2=O)CC1` (configuration not stated)?
**A.** IC50 (A2780): 16.7 µM; IC50 (cells): 16.9 µM; IC50 [1]: 18.9 µM

**Q.** Which results are given for `CCCCCCCCCCCCCC(=O)N1CCC(NC(=O)C2Sc3ccccc3N(CC)C2=O)CC1` (configuration not stated)?
**A.** IC50 (A2780): 13.1 µM; IC50 (cells): 14.9 µM; IC50 [1]: 27.3 µM

**Q.** With `CCCCCCCCCCCCCCCC(=O)N1CCN(C(=O)C2Sc3ccccc3N(CC)C2=O)CC1` (configuration not stated) as the molecule, how does the IC50 (A2780) read?
**A.** 13.2 µM

**Q.** What about the inhibition [6] of the same molecule?
**A.** Active

**Q.** And the inhibition [7]?
**A.** Active

**Q.** What about the IC50 (cells) of the same molecule?
**A.** 15.4 µM

**Q.** What about the IC50 [1] of the same molecule?
**A.** 8.7 µM

**Q.** For `CCCCCCCCCCCCCCCC(=O)N1CCC(NC(=O)C2Sc3ccccc3N(CC)C2=O)CC1` (configuration not stated), which IC50 (A2780) is on record?
**A.** 11.4 µM

**Q.** And the IC50 (cells)?
**A.** 30.4 µM

**Q.** And the IC50 [1]?
**A.** 18.6 µM

**Q.** Which results are given for `CCCCCCCCCCCCCCCCC(=O)NC1CCN(C(=O)C2Sc3ccccc3N(CC)C2=O)CC1` (configuration not stated)?
**A.** IC50 (A2780): 4.7 µM; IC50 (cells): > 100 µM; IC50 [1]: 46.7 µM

**Q.** With `CCCCCCCCC(=O)N1CCN(C(=O)C2Sc3ccccc3N(CC)C2=O)CC1` (configuration not stated) as the molecule, how does the IC50 (A2780) read?
**A.** 34.1 µM

**Q.** And the IC50 (cells)?
**A.** 81.8 µM

**Q.** And the IC50 [1]?
**A.** > 100 µM

**Q.** Which IC50 (A2780) does the source give for `CCCCCCCCC(=O)N1CCC(NC(=O)C2Sc3ccccc3N(CC)C2=O)CC1` (configuration not stated) here?
**A.** 24.7 µM

**Q.** What about the IC50 (cells) of the same molecule?
**A.** 90.6 µM

**Q.** And the IC50 [1]?
**A.** > 100 µM

**Q.** With `CCCCCCCCCCCCCC(=O)NC1CCN(C(=O)C2Sc3ccccc3N(CC)C2=O)CC1` (configuration not stated) as the molecule, how does the IC50 (A2780) read?
**A.** 9.1 µM

**Q.** What about the IC50 (cells) of the same molecule?
**A.** 26.2 µM

**Q.** And the IC50 [1]?
**A.** 33.4 µM

**Q.** What does the source list for `CCCCCCCCCC(=O)NC1CCN(C(=O)C2Sc3ccccc3N(CC)C2=O)CC1` (configuration not stated)?
**A.** IC50 (A2780): 27.2 µM; IC50 (cells): 77.4 µM; IC50 [1]: 68.3 µM

**Q.** What does the source list for `CCCCCCCCCCCC(=O)N1CCN(C(=O)C2Sc3ccccc3N(CC)C2=O)CC1` (configuration not stated)?
**A.** IC50 (A2780): 16.6 µM; IC50 (cells): 19.5 µM; IC50 [1]: 23.2 µM

**Q.** Which IC50 (A2780) does the source give for `CCCCCCCCC(=O)NC1CCN(C(=O)C2Sc3ccccc3N(CC)C2=O)CC1` (configuration not stated) here?
**A.** 33.1 µM

**Q.** What about the IC50 (cells) of the same molecule?
**A.** > 100 µM

**Q.** And the IC50 [1]?
**A.** > 100 µM

**Q.** Which IC50 (A2780) does the source give for `CCCCCCCCCCCCCCC(=O)N1CCC(NC(=O)C2Sc3ccccc3N(CC)C2=O)CC1` (configuration not stated) here?
**A.** 9 µM

**Q.** And the IC50 (cells)?
**A.** 17.5 µM

**Q.** What about the IC50 [1] of the same molecule?
**A.** 17.9 µM

**Q.** Which results are given for `CCN1C(=O)C(C(=O)N2CCC(NC(=O)CCCCCc3ccccc3)CC2)Sc2ccccc21` (configuration not stated)?
**A.** IC50 (A2780): 36 µM; IC50 (cells): > 100 µM; IC50 [1]: > 100 µM

**Q.** For `CCCCCCCCCCC(=O)NC1CCN(C(=O)C2Sc3ccccc3N(CC)C2=O)CC1` (configuration not stated), which IC50 (A2780) is on record?
**A.** 23.4 µM

**Q.** And the IC50 (cells)?
**A.** 34.4 µM

**Q.** What about the IC50 [1] of the same molecule?
**A.** 45.9 µM
